Kd and ΔTm data for eight compounds are collected here from publication PMC6100468 (2018).

The term Kd denotes the equilibrium constant for the complex coming apart. Higher therefore signals a looser complex. By ΔTm is commonly meant the shift of the melting midpoint relative to a reference.

In assay [1] the test system is Fc-kit1T (DNA, G4) AGGGAGGGCGCTGGGAGGAGGG
The experiment in a line: microscale thermophoresis. Particulars: 100 mM K+; 10 mM Tris-HCl pH 7.4. On the technique in general: In MST a laser heats a spot of the sample, and binding alters the fluorescence response.

Assay [2] deals with F21T (DNA, G4) GGGTTAGGGTTAGGGTTAGGG
In words: FRET melting. Particulars: 60 mM K+; 0.2 μM DNA, 1.0 μM compound (methods text: 2 μM, 100 mM LiCl); cacodylate pH 7.4.

Assay [3] has as its system FPu18T (DNA, G4) AGGGTGGGGAGGGTGGGG
In words: FRET melting. Particulars: 60 mM K+; 0.2 μM DNA, 1.0 μM compound (methods text: 2 μM, 100 mM LiCl); cacodylate pH 7.4.

Assay [4] has as its system F10T (DNA, hairpin, hexaethylene glycol (HEG) linker between nucleotides 10 and 11) TATAGCTATATATAGCTATA
The experiment in a line: FRET melting. Particulars: 60 mM K+; 0.2 μM DNA, 1.0 μM compound (methods text: 2 μM, 100 mM LiCl); cacodylate pH 7.4.

Assay [5] has as its system Fc-kit1T (DNA, G4) AGGGAGGGCGCTGGGAGGAGGG
In words: FRET melting. Particulars: 60 mM K+; 0.2 μM DNA, 1.0 μM compound (methods text: 2 μM, 100 mM LiCl); cacodylate pH 7.4.

Turning to `COc1cc2c(cc1OC)-c1cc3ccc(OC)c(OCC(=O)N[C@@H](CCCNC(=N)N)C(=O)N[C@@H](CCCNC(=N)N)C(N)=O)c3c[n+]1CC2`, in assay [1], the Kd was found to be 1.47 ± 0.12 µM. Besides, the figures for the thermal shift (ΔTm) in assay [2] and in assay [3] were 10.6 ± 0.2 °C and 19.6 ± 0.9 °C, respectively.
For the compound `COc1cc2c(cc1OC)-c1cc3ccc(OC)c(OC)c3c[n+]1CC2`, in assay [1], the Kd is 3.25 ± 0.32 µM. In addition, the values for the ΔTm in assay [2] and in assay [3] were 1.8 ± 0.2 °C and 11.2 ± 0.1 °C, respectively.
For `COc1cc2c(cc1OC)-c1cc3ccc(OC)c(OCC(=O)N[C@@H](CCCCN)C(=O)N[C@@H](Cc4ccccc4)C(=O)N[C@@H](CCCNC(=N)N)C(N)=O)c3c[n+]1CC2`, the Kd in assay [1] came out at 8.00 ± 0.89 µM. Further, in assay [2], the ΔTm amounted to 0.0 ± 1.2 °C.
In the case of `COc1cc2c(cc1OC)-c1cc3ccc(OC)c(OCC(=O)N[C@@H](CCCCN)C(=O)N[C@@H](CCCNC(=N)N)C(N)=O)c3c[n+]1CC2`, in assay [1], the Kd came to 2.65 ± 0.33 µM.
Regarding `COc1cc2c(cc1OC)-c1cc3ccc(OC)c(OCC(=O)N[C@@H](Cc4ccccc4)C(=O)N[C@@H](Cc4cnc[nH]4)C(=O)N[C@@H](CCCNC(=N)N)C(N)=O)c3c[n+]1CC2`, the ΔTm in assay [4] stood at 0.0 ± 1.0 °C. Further, the Kd in assay [1] came out at 9.68 ± 0.57 µM.
Regarding `COc1cc2c(cc1OC)-c1cc3ccc(OC)c(OCC(=O)N[C@@H](Cc4ccccc4)C(=O)N[C@@H](CCCNC(=N)N)C(N)=O)c3c[n+]1CC2`, the ΔTm in assay [4] came to 0.8 ± 0.4 °C; in assay [2], 11.0 ± 0.1 °C; in assay [3] it was 23.8 ± 0.6 °C; in assay [5], 21.7 ± 0.8 °C. In assay [1], the Kd came to 1.41 ± 0.09 µM.
On to `COc1cc2c(cc1OC)-c1cc3ccc(OC)c(OCC(=O)N[C@@H](Cc4ccccc4)C(=O)NCC(=O)N[C@@H](CCCCN)C(N)=O)c3c[n+]1CC2`, for which the Kd in assay [1] turned out to be 11.10 ± 0.51 µM. In addition, the ΔTm in assay [3] is 5.0 ± 1.0 °C; in assay [5] it was 6.1 ± 0.9 °C.
For `COc1cc2c(cc1OC)-c1cc3ccc(OC)c(OCC(=O)N[C@@H](Cc4ccccc4)C(=O)N[C@@H](CCCCN)C(=O)N[C@@H](CCCN=C(N)N)C(N)=O)c3c[n+]1CC2`, the Kd in assay [1] came to 6.60 ± 0.472 µM.
